Laboratory results reported in PubChem BioAssay (NCI).
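All cell lines were grown in 96-well plates and treated with compound for 48 hours. At the TGI there is no net growth.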

Assays:
Test in all cases: growth of human tumour cells (NCI), 48 h
A549 NSCLC = system: A549 NSCLC
ACHN renal = system: ACHN renal
BT-549 breast = system: BT-549 breast
CAKI-1 renal = system: CAKI-1 renal
COLO 205 colon = system: COLO 205 colon
DU-145 prostate = system: DU-145 prostate
EKVX NSCLC = system: EKVX NSCLC
HCC-2998 colon = system: HCC-2998 colon
HCT-116 colon = system: HCT-116 colon
HCT-15 colon = system: HCT-15 colon
HL-60(TB) leukemia = system: HL-60(TB) leukemia
HOP-92 NSCLC = system: HOP-92 NSCLC
HS 578T breast = system: HS 578T breast
HT29 colon = system: HT29 colon
IGROV1 ovarian = system: IGROV1 ovarian
K-562 leukemia = system: K-562 leukemia
KM12 colon = system: KM12 colon
LOX IMVI melanoma = system: LOX IMVI melanoma
M14 melanoma = system: M14 melanoma
MCF7 breast = system: MCF7 breast
MDA-MB-231 breast = system: MDA-MB-231 breast
MDA-MB-435 = system: MDA-MB-435
MDA-N = system: MDA-N
MOLT-4 leukemia = system: MOLT-4 leukemia
NCI-H23 lung = system: NCI-H23 lung
NCI-H460 lung = system: NCI-H460 lung
NCI-H522 lung = system: NCI-H522 lung
NCI/ADR-RES ovarian = system: NCI/ADR-RES ovarian
OVCAR-3 ovarian = system: OVCAR-3 ovarian
OVCAR-4 ovarian = system: OVCAR-4 ovarian
OVCAR-5 ovarian = system: OVCAR-5 ovarian
OVCAR-8 ovarian = system: OVCAR-8 ovarian
PC-3 prostate = system: PC-3 prostate
RPMI-8226 leukemia = system: RPMI-8226 leukemia
RXF 393 renal = system: RXF 393 renal
SF-268 CNS = system: SF-268 CNS
SF-295 CNS = system: SF-295 CNS
SF-539 CNS = system: SF-539 CNS
SK-MEL-2 melanoma = system: SK-MEL-2 melanoma
SK-MEL-28 melanoma = system: SK-MEL-28 melanoma
SK-MEL-5 melanoma = system: SK-MEL-5 melanoma
SK-OV-3 ovarian = system: SK-OV-3 ovarian
SN12C renal = system: SN12C renal
SNB-19 CNS = system: SNB-19 CNS
SNB-75 CNS = system: SNB-75 CNS
SR leukemia = system: SR leukemia
SW-620 colon = system: SW-620 colon
T-47D breast = system: T-47D breast
TK-10 renal = system: TK-10 renal
U251 CNS = system: U251 CNS
UACC-257 melanoma = system: UACC-257 melanoma
UACC-62 melanoma = system: UACC-62 melanoma
UO-31 renal = system: UO-31 renal
786-0 renal = system: 786-0 renal
A498 renal = system: A498 renal
HOP-62 NSCLC = system: HOP-62 NSCLC
MALME-3M melanoma = system: MALME-3M melanoma
CCRF-CEM leukemia = system: CCRF-CEM leukemia
NCI-H226 lung = system: NCI-H226 lung

## CCOC(=O)C(NC(=O)CC)(Nc1ccccc1F)C(F)(F)F (centres undefined)
A549 NSCLC
  TGI: > 100 µM
ACHN renal
  TGI: > 100 µM
BT-549 breast
  TGI: > 100 µM
CAKI-1 renal
  TGI: > 100 µM
COLO 205 colon
  TGI: > 100 µM
DU-145 prostate
  TGI: > 100 µM
EKVX NSCLC
  TGI: > 100 µM
HCC-2998 colon
  TGI: > 100 µM
HCT-116 colon
  TGI: > 100 µM
HCT-15 colon
  TGI: > 100 µM
HL-60(TB) leukemia
  TGI: > 100 µM
HOP-92 NSCLC
  TGI: > 100 µM
HS 578T breast
  TGI: > 100 µM
HT29 colon
  TGI: > 100 µM
IGROV1 ovarian
  TGI: > 100 µM
K-562 leukemia
  TGI: > 100 µM
KM12 colon
  TGI: > 100 µM
LOX IMVI melanoma
  TGI: > 100 µM
M14 melanoma
  TGI: > 100 µM
MCF7 breast
  TGI: > 100 µM
MDA-MB-231 breast
  TGI: > 100 µM
MDA-MB-435
  TGI: > 100 µM
MDA-N
  TGI: > 100 µM
MOLT-4 leukemia
  TGI: > 100 µM
NCI-H23 lung
  TGI: > 100 µM
NCI-H460 lung
  TGI: > 100 µM
NCI-H522 lung
  TGI: > 100 µM
NCI/ADR-RES ovarian
  TGI: > 100 µM
OVCAR-3 ovarian
  TGI: > 100 µM
OVCAR-4 ovarian
  TGI: > 100 µM
OVCAR-5 ovarian
  TGI: > 100 µM
OVCAR-8 ovarian
  TGI: > 100 µM
PC-3 prostate
  TGI: > 100 µM
RPMI-8226 leukemia
  TGI: > 100 µM
RXF 393 renal
  TGI: > 100 µM
SF-268 CNS
  TGI: > 100 µM
SF-295 CNS
  TGI: > 100 µM
SF-539 CNS
  TGI: > 100 µM
SK-MEL-2 melanoma
  TGI: > 100 µM
SK-MEL-28 melanoma
  TGI: > 100 µM
SK-MEL-5 melanoma
  TGI: > 100 µM
SK-OV-3 ovarian
  TGI: > 100 µM
SN12C renal
  TGI: > 100 µM
SNB-19 CNS
  TGI: > 100 µM
SNB-75 CNS
  TGI: > 100 µM
SR leukemia
  TGI: > 100 µM
SW-620 colon
  TGI: > 100 µM
T-47D breast
  TGI: > 100 µM
TK-10 renal
  TGI: > 100 µM
U251 CNS
  TGI: > 100 µM
UACC-257 melanoma
  TGI: > 100 µM
UACC-62 melanoma
  TGI: > 100 µM
UO-31 renal
  TGI: > 100 µM

## O=C(O)C(O)c1ccc(F)cc1 (centres undefined)
786-0 renal
  TGI: > 100 µM
A498 renal
  TGI: > 100 µM
A549 NSCLC
  TGI: > 100 µM
ACHN renal
  TGI: > 100 µM
BT-549 breast
  TGI: > 100 µM
CAKI-1 renal
  TGI: > 100 µM
DU-145 prostate
  TGI: > 100 µM
EKVX NSCLC
  TGI: > 100 µM
HCT-116 colon
  TGI: > 100 µM
HCT-15 colon
  TGI: > 100 µM
HOP-62 NSCLC
  TGI: > 100 µM
HOP-92 NSCLC
  TGI: > 100 µM
HS 578T breast
  TGI: > 100 µM
HT29 colon
  TGI: > 100 µM
IGROV1 ovarian
  TGI: > 100 µM
K-562 leukemia
  TGI: > 100 µM
KM12 colon
  TGI: > 100 µM
LOX IMVI melanoma
  TGI: > 100 µM
M14 melanoma
  TGI: > 100 µM
MALME-3M melanoma
  TGI: > 100 µM
MCF7 breast
  TGI: > 100 µM
MDA-MB-231 breast
  TGI: > 100 µM
MDA-MB-435
  TGI: > 100 µM
MDA-N
  TGI: > 100 µM
MOLT-4 leukemia
  TGI: > 100 µM
NCI-H23 lung
  TGI: > 100 µM
NCI-H460 lung
  TGI: > 100 µM
NCI-H522 lung
  TGI: > 100 µM
NCI/ADR-RES ovarian
  TGI: > 100 µM
OVCAR-3 ovarian
  TGI: > 100 µM
OVCAR-4 ovarian
  TGI: > 100 µM
OVCAR-5 ovarian
  TGI: > 100 µM
OVCAR-8 ovarian
  TGI: > 100 µM
PC-3 prostate
  TGI: > 100 µM
RPMI-8226 leukemia
  TGI: > 100 µM
RXF 393 renal
  TGI: > 100 µM
SF-268 CNS
  TGI: > 100 µM
SF-295 CNS
  TGI: > 100 µM
SK-MEL-2 melanoma
  TGI: > 100 µM
SK-MEL-28 melanoma
  TGI: > 100 µM
SK-OV-3 ovarian
  TGI: > 100 µM
SN12C renal
  TGI: > 100 µM
SNB-19 CNS
  TGI: > 100 µM
SNB-75 CNS
  TGI: > 100 µM
SR leukemia
  TGI: > 100 µM
SW-620 colon
  TGI: > 100 µM
T-47D breast
  TGI: > 100 µM
TK-10 renal
  TGI: > 100 µM
U251 CNS
  TGI: > 100 µM
UACC-257 melanoma
  TGI: > 100 µM
UACC-62 melanoma
  TGI: > 100 µM
UO-31 renal
  TGI: > 100 µM

## CC12CCC(=O)[C@@]1(C)CCCC2=O (some centres undefined)
786-0 renal
  TGI: > 100 µM
A549 NSCLC
  TGI: > 100 µM
ACHN renal
  TGI: > 100 µM
BT-549 breast
  TGI: > 100 µM
CAKI-1 renal
  TGI: > 100 µM
CCRF-CEM leukemia
  TGI: > 100 µM
COLO 205 colon
  TGI: > 100 µM
DU-145 prostate
  TGI: > 100 µM
EKVX NSCLC
  TGI: > 100 µM
HCC-2998 colon
  TGI: > 100 µM
HCT-116 colon
  TGI: > 100 µM
HCT-15 colon
  TGI: > 100 µM
HL-60(TB) leukemia
  TGI: > 100 µM
HOP-62 NSCLC
  TGI: > 100 µM
HS 578T breast
  TGI: > 100 µM
HT29 colon
  TGI: > 100 µM
IGROV1 ovarian
  TGI: > 100 µM
K-562 leukemia
  TGI: > 100 µM
KM12 colon
  TGI: > 100 µM
LOX IMVI melanoma
  TGI: > 100 µM
M14 melanoma
  TGI: > 100 µM
MALME-3M melanoma
  TGI: > 100 µM
MCF7 breast
  TGI: > 100 µM
MDA-MB-231 breast
  TGI: > 100 µM
MDA-N
  TGI: > 100 µM
MOLT-4 leukemia
  TGI: > 100 µM
NCI-H226 lung
  TGI: > 100 µM
NCI-H23 lung
  TGI: > 100 µM
NCI-H460 lung
  TGI: > 100 µM
NCI-H522 lung
  TGI: > 100 µM
NCI/ADR-RES ovarian
  TGI: > 100 µM
OVCAR-4 ovarian
  TGI: > 100 µM
OVCAR-5 ovarian
  TGI: > 100 µM
OVCAR-8 ovarian
  TGI: > 100 µM
PC-3 prostate
  TGI: > 100 µM
RXF 393 renal
  TGI: > 100 µM
SF-268 CNS
  TGI: > 100 µM
SF-295 CNS
  TGI: > 100 µM
SF-539 CNS
  TGI: > 100 µM
SK-MEL-2 melanoma
  TGI: > 100 µM
SK-MEL-28 melanoma
  TGI: > 100 µM
SK-OV-3 ovarian
  TGI: > 100 µM
SN12C renal
  TGI: > 100 µM
SNB-19 CNS
  TGI: > 100 µM
SR leukemia
  TGI: > 100 µM
SW-620 colon
  TGI: > 100 µM
T-47D breast
  TGI: > 100 µM
TK-10 renal
  TGI: > 100 µM
U251 CNS
  TGI: > 100 µM
UACC-257 melanoma
  TGI: > 100 µM
UACC-62 melanoma
  TGI: > 100 µM
UO-31 renal
  TGI: > 100 µM

## O=c1n(CCCN2CCOCC2)nc2n1-c1ccc3ccccc3c1SC2
786-0 renal
  TGI: 38.3 µM
A498 renal
  TGI: > 100 µM
A549 NSCLC
  TGI: > 100 µM
BT-549 breast
  TGI: > 100 µM
CAKI-1 renal
  TGI: > 100 µM
CCRF-CEM leukemia
  TGI: > 100 µM
COLO 205 colon
  TGI: 7.49 µM
DU-145 prostate
  TGI: > 100 µM
EKVX NSCLC
  TGI: > 100 µM
HCT-116 colon
  TGI: > 100 µM
HCT-15 colon
  TGI: 67.2 µM
HL-60(TB) leukemia
  TGI: 97.8 µM
HOP-62 NSCLC
  TGI: > 100 µM
HOP-92 NSCLC
  TGI: > 100 µM
HS 578T breast
  TGI: > 100 µM
HT29 colon
  TGI: 41.2 µM
IGROV1 ovarian
  TGI: > 100 µM
K-562 leukemia
  TGI: > 100 µM
KM12 colon
  TGI: > 100 µM
LOX IMVI melanoma
  TGI: 53 µM
MCF7 breast
  TGI: > 100 µM
MDA-MB-435
  TGI: > 100 µM
MDA-N
  TGI: 24.1 µM
MOLT-4 leukemia
  TGI: > 100 µM
NCI-H226 lung
  TGI: > 100 µM
NCI-H460 lung
  TGI: 81.1 µM
NCI-H522 lung
  TGI: 52.3 µM
NCI/ADR-RES ovarian
  TGI: > 100 µM
OVCAR-3 ovarian
  TGI: > 100 µM
OVCAR-4 ovarian
  TGI: > 100 µM
OVCAR-5 ovarian
  TGI: > 100 µM
OVCAR-8 ovarian
  TGI: > 100 µM
PC-3 prostate
  TGI: > 100 µM
RPMI-8226 leukemia
  TGI: 80.8 µM
RXF 393 renal
  TGI: > 100 µM
SF-295 CNS
  TGI: 42.1 µM
SF-539 CNS
  TGI: > 100 µM
SK-MEL-2 melanoma
  TGI: > 100 µM
SK-MEL-28 melanoma
  TGI: > 100 µM
SK-MEL-5 melanoma
  TGI: 47.7 µM
SK-OV-3 ovarian
  TGI: > 100 µM
SN12C renal
  TGI: > 100 µM
SNB-19 CNS
  TGI: > 100 µM
SNB-75 CNS
  TGI: > 100 µM
SR leukemia
  TGI: > 100 µM
SW-620 colon
  TGI: > 100 µM
T-47D breast
  TGI: > 100 µM
TK-10 renal
  TGI: > 100 µM
U251 CNS
  TGI: > 100 µM
UACC-257 melanoma
  TGI: > 100 µM
UACC-62 melanoma
  TGI: 47.2 µM
UO-31 renal
  TGI: 45.7 µM
